Patent US8362267B2, “Benzophenone thiazole derivatives useful for inhibiting formation of microtubule and method for producing the same” (Chong Kun Dang Pharmaceutical Corp., priority 2008, dated 2013)
≈ marks a conversion by molar mass, not a printed value. Where two headings read alike, the source gives them in different places.

Columns and labels:
[1] = test system: MKN45 (human gastric adenocarcinoma, #80103); assay: In vivo antitumor activity, human xenograft, stomach cancer model MKN45
Method: (§1) BALB/c male nude mice (4 weeks) available from Central Lab Animal Inc. were used for human xenograft experiments. Sterile food and potable water were freely provided to the mice in an isolated sterile cage and the temperature of the cage was maintained at 23±0.5° C.
(§2) A human cancer model, CX-1 (human colon adenocarcinoma), for xenograft experiment was obtained from the German Cancer Research Center (DKFZ), and HCT-15 (human colorectal adenocarcinoma, CCL-225) and A549 (human lung carcinoma, CCL-185) were obtained from ATCC (American Type Culture Collection, Rockville, Md., USA). Human tumor cells, MKN45 (human gastric adenocarcinoma, #80103) and calu-6 (human lung carcinoma, #30056) were obtained from KCLB (Korean Cell Line. Bank).
(§3) CX-1 was incubated in a 95% air incubator (37° C., 5% CO2) using a DMEM (Dulbecco's Modified Eagle's Medium, Gibco) supplemented with 10% heat-inactivated fetal bovine serum (Gibco) and 1% Antibiotics-Antimycotics (Gibco). Other cell lines were incubated in a 95% air incubator (37° C., 5% CO2) using an RPM1640 (Gibco BRL) medium supplemented with 10% heat-inactivated fetal bovine serum (Gibco) and 1% Antibiotics-Antimycotics (Gibco).
(§4) In vivo human xenograft experiments were performed in accordance with the following procedure. In vitro proliferated human-derived cancer cell lines (CX-1, HCT-15, A549, MKN45, calu-6) were subcutaneously injected into the abdominal region of BALB/c nude mice and were thus proliferated in vivo. After 20 to 25 days, the mice were sacrificed by cervical spine dislocation, solid cancer cells proliferated in the mice were sterilely separated and fresh cancer cells from which connective or necrotic tissues or skin were removed were collected. The fragments of tumor were transplanted to the BALB/c nude mice.
(§5) The mice in which cancer cells were proliferated to a predetermined size were collected on the 15th to 30th day after human-derived cancer models were transplanted into the BALB/c nude mice and then used for the tests. For each experimental group, the drug was injected at a dose of 0.1 mL per 10 g of mouse in accordance with a dose schedule, when tumor cells were grown to a size of 100 to 200 mm^3 after tumor transplantation.
(§6) After administration, antitumor activity was evaluated based upon an antitumor inhibition rate (IR %) of tumor growth, obtained by comparing a tumor volume measured on the final day with a tumor volume of a control group. As the reference drug, AC7700 (Sanofi-Aventis), which is currently undergoing phase III clinical trials, was used. Tumor size=(short diameter)^2×(long diameter)/2 I.R.(%)=[1−(average tumor size of drug-administered group)/(average tumor size of control group)]×100

[2] = test system: HCT-15 (human colorectal adenocarcinoma, CCL-225); format: in vivo; conditions: HCT-15 xenograft, q4d x 4 (i.p.)
Method: as §1, §2, §3, §4, §5, §6

[3] = test system: CX-1 (human colon adenocarcinoma); assay: In vivo antitumor activity, human xenograft, colorectal cancer model CX-1; design: species or system BALB/c nude mice; conditions: for Body weight change (%) / Number of dead animals / IR (%): q4d x 4 (i.p.); for animal death / pharmaceutical effects as compared to the reference drug, AC7700 / weight loss: CX-1 xenograft model; for animal death / pharmaceutical effects as compared to the reference drug, AC7700: in words; for weight loss: as compared to the compound 516, in words
Method: as §1, §4, §5, §6

[4] = test system: calu-6 (human lung carcinoma, #30056); assay: In vivo antitumor activity, human xenograft, non-small cell lung cancer model calu-6
Method: as §1, §2, §3, §4, §5, §6

[5] = test system: A549 (human lung carcinoma, CCL-185); assay: In vivo antitumor activity, human xenograft, lung cancer model A549
Method: as §1, §2, §3, §4, §5, §6

[6] = Measurement of solubility in water (HPLC); format: physicochemical; conditions: thermodynamic from solid; in distilled water, 25° C.
Method: The compounds of the present invention were developed to reduce toxicity caused by deposition on organ due to low solubility of compound 516, as confirmed by animal tests. Considering this, solubility of the present compounds in water was thus measured.
The compound was dissolved in acetonitrile to a concentration of 1 mg/mL and the solution was diluted with a mobile phase to a concentration of 5, 12.5, 25, 50 or 100 μg/ml.
1. The compound was added to distilled water such that the concentration of each specimen was adjusted to 10 mg/mL, stirred in a thermostat stirrer (25° C., 200 rpm) for about 7 days, filtered and diluted with a mobile phase to an optimal concentration.
2. The compound was added to distilled water such that the concentration of each specimen was adjusted to 10 mg/mL, sonicated for 30 minutes, stirred for 5 minutes, filtered, sonicated for 30 minutes again and diluted with a mobile phase to an optimal concentration.
Column temperature: 25° C.
Column: Kromasil C8 (4.6×150 mm, 5 μm)
Mobile phase: 20 mM ammonium acetate, pH 5.0/ACN (60/40)

[7] = MKN45 xenograft, 80 mg/kg, q4d x 4 (i.p.)
[8] = Table 3, CX-1 xenograft, 100 mg/kg
[9] = Table 4, CX-1 xenograft, 100 mg/kg
[10] = calu-6 xenograft, 80 mg/kg, q4d x 4 (i.p.)
[11] = A549 xenograft, 80 mg/kg, q4d x 4 (i.p.)
[12] = Table 3, CX-1 xenograft, 5 mg/kg
[13] = MKN45 xenograft, 5 mg/kg, q4d x 4 (i.p.)
[14] = MKN45 xenograft, 7.5 mg/kg, q4d x 4 (i.p.)
[15] = MKN45 xenograft, 10 mg/kg, q4d x 4 (i.p.)
[16] = Table 4, CX-1 xenograft, 5 mg/kg
[17] = Table 4, CX-1 xenograft, 10 mg/kg
[18] = calu-6 xenograft, 5 mg/kg, q4d x 4 (i.p.)
[19] = calu-6 xenograft, 7.5 mg/kg, q4d x 4 (i.p.)
[20] = calu-6 xenograft, 10 mg/kg, q4d x 4 (i.p.)
[21] = A549 xenograft, 5 mg/kg, q4d x 4 (i.p.)
[22] = A549 xenograft, 7.5 mg/kg, q4d x 4 (i.p.)
[23] = A549 xenograft, 10 mg/kg, q4d x 4 (i.p.)
[24] = Table 4, CX-1 xenograft, 20 mg/kg

COc1ccc(/C=C\c2cc(OC)c(OC)c(OC)c2)cc1NC(=O)[C@@H](N)CO [AC7700, reference compound]
Body weight change (%) [1, 7]: +7.8%
IR (%) [1, 7]: 55%
Number of dead animals [1, 7]: 0/6
Body weight change (%) ([2]; 80 mg/kg): +5.5%
IR (%) ([2]; 80 mg/kg): 66%
Number of dead animals ([2]; 80 mg/kg): 1/6
Body weight change (%) [3, 8]: +13.2%
Number of dead animals [3, 8]: 2/6
IR (%) ([3]; Table 3, CX-1 xenograft, 100 mg/kg, tumor volume on final day vs control): 48%
Body weight change (%) [3, 9]: +22.8%
IR (%) [3, 9]: 34%
Number of dead animals [3, 9]: 0/6
Body weight change (%) [4, 10]: +22.4%
IR (%) [4, 10]: 80%
Number of dead animals [4, 10]: 0/6
Body weight change (%) [5, 11]: +2.6%
IR (%) [5, 11]: 64%
Number of dead animals [5, 11]: 0/7

COc1cc(C(=O)c2ccc(-c3csc(N)n3)cc2-n2cncn2)cc(OC)c1OC [Compound 516, {4-(2-aminothiazol-4-yl)-2-(1H-1,2,4-triazol-1-yl)phenyl}(3,4,5-trimethoxyphenyl)methanone, reference compound]
animal death [3]: two animals died
pharmaceutical effects as compared to the reference drug, AC7700 [3]: significantly superior pharmaceutical effects
Body weight change (%) [3, 12]: +15.2%
Number of dead animals [3, 12]: 2/6
IR (%) ([3]; Table 3, CX-1 xenograft, 5 mg/kg, tumor volume on final day vs control): 36%
solubility [6]: 0.5 mg/mL (≈ 1.14 mM)

COc1cc(C(=O)c2ccc(-c3csc(NC(=O)CN)n3)cc2-n2cncn2)cc(OC)c1OC [Compound 615, N-(4-(3-(1H-1,2,4-triazol-1-yl)-4-(3,4,5-trimethoxybenzoyl)phenyl)thiazol-2-yl)-2-aminoacetamide]
solubility [6]: 23.3 mg/mL (≈ 47.1 mM)

COc1cc(C(=O)c2ccc(-c3csc(NC(=O)[C@@H](N)C(C)C)n3)cc2-n2cncn2)cc(OC)c1OC [Compound 624, (S)—N-(4-(3-(1H-1,2,4-triazol-1-yl)-4-(3,4,5-trimethoxybenzoyl)phenyl)thiazol-2-yl)-2-amino-3-methylbutanamide]
pharmaceutical effects as compared with the reference drug ([1]; MKN45 xenograft model, in words): significantly superior pharmaceutical effects
Body weight change (%) [1, 13]: −11.8%
IR (%) [1, 13]: 21%
Body weight change (%) [1, 14]: +2.9%
IR (%) [1, 14]: 46%
Body weight change (%) [1, 15]: +4.3%
IR (%) [1, 15]: 68%
Body weight change (%) ([2]; 5 mg/kg): +1.8%
IR (%) ([2]; 5 mg/kg): 12%
Body weight change (%) ([2]; 7.5 mg/kg): +3.2%
IR (%) ([2]; 7.5 mg/kg): 63%
Body weight change (%) ([2]; 10 mg/kg): +6.6%
IR (%) ([2]; 10 mg/kg): 69%
weight loss [3]: no weight loss
animal death [3]: no animal death
pharmaceutical effects as compared to the reference drug, AC7700 [3]: significantly superior pharmaceutical effects
Body weight change (%) [3, 16]: +25.7%
IR (%) [3, 16]: 28%
Body weight change (%) [3, 17]: +14.7%
IR (%) [3, 17]: 64%
solubility [6]: 14.9 mg/mL (≈ 27.8 mM)
pharmaceutical effects as compared with the reference drug ([4]; calu-6 xenograft model, in words): significantly superior pharmaceutical effects
Body weight change (%) [4, 18]: +26.2%
IR (%) [4, 18]: 41%
Body weight change (%) [4, 19]: +26.0%
IR (%) [4, 19]: 73%
Body weight change (%) [4, 20]: +20.6%
IR (%) [4, 20]: 82%
pharmaceutical effects as compared with the reference drug ([5]; A549 xenograft model, in words): significantly superior pharmaceutical effects
Body weight change (%) [5, 21]: −1.7%
IR (%) [5, 21]: 39%
Body weight change (%) [5, 22]: +1.7%
IR (%) [5, 22]: 61%
Body weight change (%) [5, 23]: −1.2%
IR (%) [5, 23]: 71%

COc1cc(C(=O)c2ccc(-c3csc(NC(=O)[C@@H](N)Cc4ccccc4)n3)cc2-n2cncn2)cc(OC)c1OC [Compound 625]
weight loss [3]: no weight loss
animal death [3]: no animal death
pharmaceutical effects as compared to the reference drug, AC7700 [3]: significantly superior pharmaceutical effects
Body weight change (%) [3, 16]: +28.9%
IR (%) [3, 16]: 21%
Body weight change (%) [3, 17]: +24.5%
IR (%) [3, 17]: 43%
solubility [6]: 11 mg/mL (≈ 18.8 mM)

COc1cc(C(=O)c2ccc(-c3csc(NC(=O)CN(C)C)n3)cc2-n2cncn2)cc(OC)c1OC [Compound 631, N-(4-(3-(1H-1,2,4-triazol-1-yl)-4-(3,4,5-trimethoxybenzoyl)phenyl)thiazol-2-yl)-2-(dimethylamino)acetamide]
weight loss [3]: no weight loss
animal death [3]: no animal death
pharmaceutical effects as compared to the reference drug, AC7700 [3]: significantly superior pharmaceutical effects
Body weight change (%) [3, 16]: +24.8%
IR (%) [3, 16]: 23%
Body weight change (%) [3, 17]: +26.7%
IR (%) [3, 17]: 20%
Body weight change (%) [3, 24]: +20.9%
IR (%) [3, 24]: 37%

COc1cc(C(=O)c2ccc(-c3csc(NC(=O)[C@@H](N)CC(C)C)n3)cc2-n2cncn2)cc(OC)c1OC [Compound 647, (S)—N-(4-(3-(1H-1,2,4-triazol-1-yl)-4-(3,4,5-trimethoxybenzoyl)phenyl)thiazol-2-yl)-2-amino-4-methylpentanamide]
solubility [6]: 12.1 mg/mL (≈ 22 mM)
